Source: PubChem BioAssay (NCI)
“And” between values parts separate entries of the source, which are not always exact repeats. Identical values can stand only once.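 1) Cells in 96-well plates. 2) Compound, 48 h, 5 concentrations. 3) Linear interpolation between surrounding doses. 4) Unreached endpoint = highest concentration. The concentration for 50% growth inhibition is given as GI50. The concentration for full growth arrest is given as TGI.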

Key:
Assay in all cases: inhibition of tumour cell growth, NCI panel, 48 h
DU-145 prostate = test system: DU-145 prostate
OVCAR-8 ovarian = test system: OVCAR-8 ovarian
LOX IMVI melanoma = test system: LOX IMVI melanoma
NCI-H460 lung = test system: NCI-H460 lung
A549 NSCLC = test system: A549 NSCLC
HT29 colon = test system: HT29 colon
ACHN renal = test system: ACHN renal
MALME-3M melanoma = test system: MALME-3M melanoma
KM12 colon = test system: KM12 colon
SNB-75 CNS = test system: SNB-75 CNS

Row | SMILES | TGI (DU-145 prostate) | TGI (OVCAR-8 ovarian) | TGI (LOX IMVI melanoma) | TGI (NCI-H460 lung) | TGI (A549 NSCLC) | TGI (HT29 colon) | TGI (ACHN renal) | TGI (MALME-3M melanoma) [µM] | TGI (KM12 colon) | TGI (SNB-75 CNS) | GI50 (DU-145 prostate) [µM] | GI50 (OVCAR-8 ovarian) [µM] | GI50 (LOX IMVI melanoma) [µM] | GI50 (NCI-H460 lung) [µM] | GI50 (A549 NSCLC) [µM] | GI50 (HT29 colon) [µM] | GI50 (ACHN renal) [µM] | GI50 (MALME-3M melanoma) [µM] | GI50 (KM12 colon) [µM] | GI50 (SNB-75 CNS) [µM]
1 | Cc1cc(NC(=O)NC(=O)c2ccccc2NC(=O)C(C)N)ccc1Oc1ncc(Br)cn1 (centres undefined) | 19.2 µM | 15.3 µM | 33.5 µM | 19.2 µM | 35.8 µM | 3.51 µM | 27.4 µM | 33.4 | 19.4 µM | 2.47 µM | – | – | – | – | – | – | – | – | – | –
2 | Cn1ncnc1[C@H]1c2n[nH]c(=O)c3cc(F)cc(c23)N[C@@H]1c1ccc(F)cc1 | > 100 µM | > 100 µM | > 100 µM | > 100 µM | > 100 µM | > 100 µM | > 100 µM | > 100 | > 100 µM | > 100 µM | 3.59 | > 100 | 4.75 | 0.0354 | 6.96 | > 100 | 54.3 | > 100 | > 100 | 15.1
3 | O=C1CCCCCCCCCCC1CN1CCCC1 (centres undefined) | > 100 µM | > 100 µM | 70.7 µM | > 100 µM | > 100 µM | 77.1 µM | > 100 µM | > 100 | > 100 µM | > 100 µM | – | – | – | – | – | – | – | – | – | –
4 | Cc1ccc(S(=O)(=O)c2c(COC(=O)c3cccc(C)c3)c(-c3ccccc3)nn2C)cc1 | > 100 µM | > 100 µM | > 100 µM | > 100 µM | > 100 µM | > 100 µM | > 100 µM | > 100 | > 100 µM | > 100 µM | > 100 | > 100 | > 100 | > 100 | > 100 | > 100 | > 100 | > 100 | > 100 | > 100
5 | O=C1Nc2ccc(Br)cc2C1=Nc1cccnc1 | > 100 µM | 51.7 µM | 34.8 µM | > 100 µM | > 100 µM | 51.3 µM | 39.3 µM | 46.8 | 99.3 µM | > 100 µM | – | – | – | – | – | – | – | – | – | –
6 | CSC1=C(N)C(=O)c2[nH]cc(CO)c2C1=N | 0.308 µM | 0.948 µM | 0.283 µM | 0.338 µM | 0.331 µM | 0.498 µM | – | 0.192 | 2.2 µM | 0.307 µM | 0.166 | 0.275 | 0.134 | 0.154 | 0.136 | 0.161 | – | 0.0714 | 0.418 | 0.165
7 | C[C@H]1CC[C@@]2(NC1)O[C@H]1C[C@H]3[C@@H]4CC[C@H]5C[C@@H](O)CC[C@]5(C)[C@H]4CC[C@]3(C)[C@H]1[C@@H]2C | 50 µM and > 100 µM | 50 µM and > 100 µM | 41.8 µM and > 100 µM | 34.8 µM and > 100 µM | 50 µM and > 100 µM | 50 µM and > 100 µM | 21.9 µM and > 100 µM | 31.5 | 50 µM and > 100 µM | 24.7 µM and > 100 µM | 30.3 | – | 14.4 | 11.9 | 19.6 | 9.75 | 11.2 | 11.2 | 19 | 10.9
8 | COc1cc2nc(N3CCCC3)nc(NCc3ccccc3)c2cc1OC | 16.5 µM | 13.7 µM | 3.36 µM | 8.73 µM | 16.3 µM | 7.29 µM | 3.89 µM | 3.34 | 17 µM | 5.38 µM | 4.62 | 3.2 | 1.71 | 2.95 | 4.1 | 2.29 | 1.89 | 1.84 | 4.52 | 1.69
9 | Nc1ncnc2c1N=C(c1ccc3c(c1)OCO3)CC(c1ccc([N+](=O)[O-])cc1)N2 (centres undefined) | > 100 µM | > 100 µM | > 100 µM | > 100 µM | > 100 µM | > 100 µM | > 100 µM | > 100 | > 100 µM | > 100 µM | 46.3 | 55.9 | 22.9 | 76.3 | 69.7 | 63 | 29.1 | 61.1 | 35.2 | 39.4
10 | CC1=C(c2cccc(O)c2)[C@H](c2ccc(OCCN3CC(CF)C3)cc2)Oc2ccc(O)cc21 | 15 µM | 32.6 µM | 5.16 µM | 18.2 µM | 23.8 µM | 12.8 µM | 18.6 µM | 13.3 | 21.7 µM | 22.3 µM | 4.18 | 12.9 | 2.23 | 4.94 | 7.81 | 3.52 | 6.2 | 3.23 | 6.44 | 10.5
11 | CN1CCN(C(=O)C(C)(C)c2ccc(C(=O)Nc3cn4cc(-c5ccncc5)ccc4n3)cc2)CC1 | 35.2 µM | > 100 µM | 0.934 µM | 34.3 µM | > 100 µM | > 94.9 µM | 1.48 µM | 0.773 | > 60.3 µM | 1.57 µM | 0.319 | 0.347 | 0.215 | 0.303 | 0.214 | 0.358 | 0.238 | 0.26 | 0.175 | 0.167
12 | C[C@@H]1[C@H](C)N1CC(O)Cn1ccnc1[N+](=O)[O-] (some centres undefined) | > 100 µM | > 100 µM | > 100 µM | > 100 µM | > 100 µM | > 100 µM | > 100 µM | > 100 | > 100 µM | > 100 µM | – | – | – | – | – | – | – | – | – | –
13 | Cc1cc2c(C(C)C)c(O)c(O)cc2c(O)c1-c1c(C)cc2c(C(C)C)c(O)c(O)cc2c1O | 78 µM | 41.1 µM | 16.2 µM | 40 µM | 47.2 µM | 39.6 µM | 21.9 µM | 24.6 | 27.2 µM | 60 µM | 22 | 15.2 | 4.42 | 11.8 | 17.2 | 20.1 | 8.66 | 10.9 | 11.6 | 24.5
14 | O=C1OCC2=C1C(c1cccc(Cl)c1)c1cc3c(cc1N2CCO)OCCO3 (centres undefined) | 1.31 µM | 4.33 µM | 17.9 µM | 4.59 µM | 4.35 µM | 0.282 µM | > 100 µM | > 100 | 1.72 µM | 39.3 µM | 0.152 | 0.176 | 0.0689 | 0.0494 | 0.132 | 0.0402 | 0.0733 | 0.0551 | 0.0431 | 0.0419
15 | Cc1[nH]c2ccccc2c1CCCO | > 100 µM | > 100 µM | > 100 µM | > 100 µM | > 100 µM | > 100 µM | > 100 µM | > 100 | > 100 µM | > 100 µM | > 100 | > 100 | > 100 | > 100 | > 100 | > 100 | > 100 | > 100 | > 100 | > 100
16 | Cc1cc2c(cc1Cl)SC1=NN(C)C(C)N1S2(=O)=O (centres undefined) | > 100 µM | > 100 µM | > 100 µM | > 100 µM | > 100 µM | > 100 µM | > 100 µM | > 100 | > 100 µM | > 100 µM | > 100 | > 100 | > 100 | > 100 | > 100 | > 100 | > 100 | > 100 | > 100 | 35.3
17 | CC(C)(C)C(=O)OCC1C(=O)OCC1C(=O)N1Cc2cc3ccccc3nc2C1 (centres undefined) | 30.2 µM | 14.8 µM | 15.3 µM | 5.52 µM | 30.8 µM | 14.2 µM | 7.54 µM | 2.98 | 29.8 µM | 19.9 µM | – | – | – | – | – | – | – | – | – | –
18 | O=C(C/C(=N/O)C(=O)NC1=C(Cl)C(=O)c2ccccc2C1=O)CC(c1ccccc1)c1c(O)c2ccccc2oc1=O (centres undefined) | 11.2 µM | > 100 µM | > 100 µM | 16 µM | 35.3 µM | 44.3 µM | 65.7 µM | 4.55 | 17.8 µM | 19 µM | – | – | – | – | – | – | – | – | – | –
19 | CC(C)CCCC(C)[C@H]1CCC2[C@@H]3CCC4Cc5nc6c(nc5C[C@]4(C)C3CC[C@@]21C)CC1CC[C@@H]2C(CC[C@@]3(C)C2CC[C@@H]3C(C)CCCC(C)C)[C@@]1(C)C6 (some centres undefined) | > 100 µM | > 100 µM | > 100 µM | > 100 µM | > 100 µM | > 100 µM | > 100 µM | > 100 | > 100 µM | > 100 µM | – | – | – | – | – | – | – | – | – | –
20 | COC1CC(O[C@H]2CC[C@@]3(C)[C@H](CC[C@@H]4[C@@H]3CC[C@]3(C)[C@@H](C5=CC(=O)OC5)[C@@H](OC(C)=O)C[C@]43O)C2)OC(C)C1O (some centres undefined) | < 0.01 µM | < 0.01 µM | < 0.01 µM | < 0.01 µM | < 0.01 µM | < 0.01 µM | < 0.01 µM | < 0.01 | < 0.0106 µM | < 0.01 µM | < 0.01 | < 0.01 | < 0.01 | < 0.01 | < 0.01 | < 0.01 | < 0.01 | < 0.01 | < 0.01 | < 0.01
21 | O=C1c2cc3c(cc2[C@@H]2[C@H]1c1ccc([N+](=O)[O-])cc1C(=O)N2CCCBr)OCO3 | – | 0.271 µM | < 0.0117 µM | – | 0.0865 µM | > 100 µM | < 0.01 µM | 0.168 | 3.95 µM | 0.0775 µM | < 0.01 | < 0.01 | < 0.01 | – | < 0.01 | < 0.01 | < 0.01 | < 0.0189 | 0.0437 | < 0.01
